Results taken from patent publication US20030124127A1, “Targeting leukemia cells” (priority 2001, published 2003).

Assays:
[1] = test system: NB4 cells; assay: ATRA-induced NB4 cell differentiation (morphology, CD11B/CD16 flow cytometry, NBT reduction test); assay type: cell-based, human; conditions: 1 μM ATRA
Method: (§1) Leukemia cell lines. NB4 cells were a gift (Dr. James R. Downing, St. Jude Children's Research Hospital) and other leukemia cell lines (K562, U937 and HL-60) were purchased from ATCC (Manassas, Va.). All leukemia cell lines were cultured in RPMI 1640 medium plus 10% fetal calf serum. Cells (1×10^6) were treated with or without 1 μM ATRA (Sigma, St. Louis, Mo.) for 12, 24, 48, 72, and 96 hours at 37° C. in a 5% CO2 incubator in darkness. All experiments were repeated three times.
(§2) Assessment of cell differentiation. ATRA-induced NB4 cell differentiation was evaluated by morphological assessment, by flow cytometry for expression of cell surface antigens related to granulocytic differentiation and maturation such as CD11B/CD18-integrins (Gahmberg C G, Curr. Opin. Cell Biol. 9: 643-650, 1997) and by the nitroblue tetrazolium (NBT) reduction test, which measures myelocyte maturity (Idres N et al., Cancer Res. 61: 700-705, 2001). For cell cycle analysis, the cells were stained with propidium iodide (PI) and analyzed by a fluorescence-activated cell sorting analysis.

[2] = test system: NB4 cells; assay: Cell cycle analysis of ATRA-treated NB4 cells (propidium iodide, flow cytometry); assay type: cell-based, human; conditions: 1 μM ATRA, 12-96 hrs, PI staining
Method: as §1, §2

[3] = test system: NB4 cells; assay: RT-PCR analysis of CD52 mRNA in NB4 cells; assay type: cell-based, human; conditions: ATRA 12-96 hr, not detectable in untreated cells
Method: (§3) Reverse transcriptase (RT)-PCR. NB4 cells were cultured and treated with or without ATRA as described above. Some assays were performed using other cell lines including the erythroblastic leukemia cell line K562, the monocytic leukemia cell line U937 and the HL-60 cell line, a human myeloblastic leukemia cell line lacking the t(15; 17) translocation. Total RNA was isolated from the cells and used for CD52 cDNA synthesis by RT-PCR. The cDNA was synthesized in a 20 μl reaction mixture containing 5 μg RNA, 5 mM dNTP, 0.1 μg random primers and 200 U reverse transcriptase, and the mixture was incubated at 42° C. for 1 hr. The cDNA was amplified for 30 cycles with denaturation at 94° C. for 30 seconds, annealing at 56° C. for 30 seconds and extension at 72° C. for 1 min. Amplified products were sequenced and confirmed by comparison with sequence data from GenBank.

[4] = test system: NB4 cells; assay: Western blot analysis of CD52 protein in NB4 cells; assay type: cell-based, human; conditions: ATRA-treated vs untreated
Method: Western blot analysis. Cell lysates from control and ATRA-treated NB4 cells were separated on a 4%-20% gradient SDS-polyacrylamide gel and then transferred to PVDF membrane (Millipore, Bedford, Mass.) using a semidry electroblot chamber. The membrane was blocked overnight with 5% dry-milk in Tris-buffered saline and then incubated with anti-CD52 antibody (Serotec, Inc., Raleigh, N.C.) for 1 hour at room temperature. The binding of primary antibody was detected by using peroxidase-coupled second antibody (Sigma). Bound peroxidase was detected by the Super Signal Substrate (Pierce, Rockford, Ill.).

[5] = test system: monocytic leukemia cell line U937; assay: Cell specificity of CD52 induction by ATRA, flow cytometry, U937; assay type: cell-based; conditions: U937, ATRA 96 hours
Method: as §1
(§4) Flow cytometry. APL cells were treated as described above with 1 μM of ATRA for 24, 48, 72, and 96 hrs, and cell differentiation was evaluated by changes in cell morphology, CD11B and CD18 expression, and the NBT reduction test. ATRA treated cells (1×10^6) were stained with CD18-FITC (Becton Dickinson Biosciences San Jose, Calif.), CD11B-PE, and CD52-FITC antibodies (both from Serotec) following manufacturer's instructions. […] Samples were analyzed in triplicate.
(§5) Cell specificity of CD52 expression induction by ATRA. To determine the cell specificity of ATRA-induced CD52 expression, other leukemia cell lines were tested and compared with NB4 under assay conditions used for the NB4 cells.

[6] = test system: erythroblastic leukemia line K562; assay: Cell specificity of CD52 induction by ATRA, flow cytometry, K562; assay type: cell-based; conditions: K562, ATRA 96 hours
Method: as §1, §4, §5

[7] = test system: HL-60 cells; assay: Cell specificity of CD52 induction by ATRA, flow cytometry, HL-60; assay type: cell-based, human; conditions: HL-60, lacking t(15;17), ATRA 96 hours
Method: as §1
as §3, with “The cDNA was amplified for 30 cycles with denaturation at 94° C. for 30 seconds, annealing at 56° C. for 30 seconds and extension at 72° C. for 1 min. Amplified products were sequenced and confirmed by comparison with sequence data from GenBank.” left out
Flow cytometry. APL cells were treated as described above with 1 μM of ATRA for 24, 48, 72, and 96 hrs, and cell differentiation was evaluated by changes in cell morphology, CD11B and CD18 expression, and the NBT reduction test. […] Samples were analyzed in triplicate. […]

[8] = test system: newly diagnosed APL; conditions: ATRA therapy; cited from earlier work
[9] = test system: NB4 cells; assay: cDNA microarray analysis of ATRA-induced NB4 cell gene expression; conditions: 96 hr
[10] = test system: NB4 cells; assay: Flow cytometry of CD52, CD11B, CD18 surface expression in NB4 cells
[11] = cited from earlier work
[12] = test system: normal and malignant lymphocytes; conditions: clinical studies; cited from earlier work

Question: Which “maximal differentiation (CD11B+ and NBT+ cells)” value ([1]; 24 to 96 hrs and later) does the source give for `CC1=C(/C=C/C(C)=C/C=C/C(C)=C/C(=O)O)C(C)(C)CCC1` [ATRA, all-trans-retinoic acid] here?
Answer: Its value is 85%.

Question: And the “morphologic change in NB4 cells” value ([1]; end of 24 hrs)?
Answer: Its value is “No obvious morphologic change”.

Question: What about the CD16 expression ([1]; flow cytometry) of the same molecule?
Answer: The CD16 expression was “failed to express CD16”.

Question: And the S-phase cells [2]?
Answer: The S-phase cells was “decrease of S-phase cells”.

Question: And the “expression of CD52 mRNA” value [3]?
Answer: Its value is “rapidly induced”.

Question: What about the “CD52 protein bands of 21-28 kDa” value [4] of the same molecule?
Answer: The value was “only detected in ATRA-treated cells”.

Question: What about the “expression of CD11B” value [5] of the same molecule?
Answer: The value was “slightly increased”.

Question: And the “expression of CD52” value [5]?
Answer: The value was “did not affect”.

Question: And the CD11B expression [6]?
Answer: The CD11B expression was “did not induce”.

Question: What about the CD52 expression [6] of the same molecule?
Answer: Its CD52 expression is “did not induce”.

Question: What about the CD52 up-regulation [7] of the same molecule?
Answer: Its CD52 up-regulation is “not up-regulated”.

Question: And the “complete remission of patients” value [8]?
Answer: Its value is “up to 85%”.

Question: What about the “CD52 mRNA expression, fold over control” value ([9]; 1 μM ATRA, peak) of the same molecule?
Answer: The value was 6.49 fold.

Question: What about the “expression of gene gf206—339D4, fold of control” value ([9]; ATRA) of the same molecule?
Answer: Its value is “more than 58 fold”.

Question: What about the “maximal CD52 surface expression” value ([10]; 1 μM ATRA, 48 to 96 hr) of the same molecule?
Answer: The value was roughly 90%.

Question: And the “cell population co-expressing CD11B and CD52” value ([10]; 96 hr of ATRA exposure)?
Answer: The value was “approximately 80%”.

Question: What about the “cells expressing only CD11B” value ([10]; 96 hr of ATRA exposure) of the same molecule?
Answer: The value was “approximately 10%”.

Question: What about the “cells expressing only CD52” value ([10]; 96 hr of ATRA exposure) of the same molecule?
Answer: Its value is “approximately 5%”.

Question: And the “up-regulation of both CD11B and CD52” value ([10]; NB4, ATRA 96 hours)?
Answer: The value was “robust up-regulation”.

Question: With `CC1=C(/C=C/C(C)=C/C=C/C(C)=C/CO)C(C)(C)CCC1` [retinol] as the molecule, how does the “solubility in ethanol, methanol, ether, fats, and oil” value [11] read?
Answer: Its value is “soluble”.

Question: And the “solubility in water or aqueous salt solutions” value [11]?
Answer: Its value is “practically insoluble”.

Question: For “CAMPATH-1H: A humanized anti-CD52 monoclonal antibody”, which “depletion of normal and malignant lymphocytes in vivo” value [12] is on record?
Answer: Its value is “extremely effective”.
